This note sets out measurements from ChEMBL document CHEMBL6109065, “Synthesis, antibacterial and anticancer activity of azo-based and aminomethylene derivatives of cyclic β-keto sulfones” (Bioorg Med Chem Lett, 2025).

pEC50: −log10 of the molar value. Converted amounts (≈) assume the structure as drawn.

The subject of series [1] is MDA-MB-231. Description: Cytotoxicity against human MDA-MB-231 cells assessed as inhibition of cell growth at 0.5 mM relative to control. It is filed as functional.
A further series deals with Staphylococcus aureus. Nature of the series: Antibacterial activity against Staphylococcus aureus assessed as reduction in bacterial growth. The series is classed as functional.
A further series concerns Escherichia coli. Description: Antibacterial activity against Escherichia coli assessed as reduction in bacterial growth. It is filed as functional.
Another series deals with Pseudomonas aeruginosa. Nature of the series: Antibacterial activity against Pseudomonas aeruginosa assessed as reduction in bacterial growth. The series is classed as functional.
Series [2] can be described thus: Cytotoxicity against MAEC cells assessed as inhibition of cell growth at 0.5 mM relative to control. The series is classed as toxicity, cell-based. Conditions: mouse.
In series [3] the test system is MDA-MB-231. Nature of the series: Cytotoxicity against human MDA-MB-231 cells assessed as inhibition of cell viability. The series is classed as functional, cell-based.
Series [4] can be described thus: Cytotoxicity against MAEC cells assessed as cell viability. The series is classed as toxicity, cell-based. Conditions: mouse.

A word on the inhibition: it is the percentage by which the read-out fell short of the control. The term MIC denotes the least concentration at which growth counts as inhibited. Take `NS(=O)(=O)c1ccc(N/N=C2\C(=O)C3(CCCC3)CS2(=O)=O)cc1`: the inhibition at 500 µM is 81% in the series on MDA-MB-231 [1] and 1% in series [2]. For the same compound, the MIC was 94 µM (≈ 34.9 µg/mL) in the series on Staphylococcus aureus, 188 µM (≈ 69.8 µg/mL) in the series with Escherichia coli and 750 µM (≈ 279 µg/mL) in the series on Pseudomonas aeruginosa.

With `CC(C)(C)OC(=O)N1CC2(C1)CS(=O)(=O)/C(=N/Nc1cccc(S(N)(=O)=O)c1)C2=O`, the results for the inhibition at 500 µM (in the series with MDA-MB-231 [1]; in series [2]) were 63% and 6%, respectively. In addition, the MIC is 188 µM (≈ 86.2 µg/mL) in the series with Staphylococcus aureus, 188 µM (≈ 86.2 µg/mL) with Escherichia coli and over 750 µM in the series on Pseudomonas aeruginosa.

For orientation: pEC50 means −log10 of the EC50, conventionally taken in molar units. With `O=C1/C(=C\NCc2ccccc2)S(=O)(=O)CC12CC2`, the inhibition at 500 µM amounted to 90% with MDA-MB-231 [1] and 17% in series [2]. For the same compound, the MIC with Staphylococcus aureus, with Escherichia coli and in the series with Pseudomonas aeruginosa was 750 µM (≈ 208 µg/mL) throughout. Moreover, in the series on MDA-MB-231 [3], the pEC50 was 3.57.

For `CC1(C)CS(=O)(=O)/C(=N/Nc2ccc(S(N)(=O)=O)cc2)C1=O`, the inhibition at 500 µM with MDA-MB-231 [1] came to 51%; in series [2], 3%. Further, the MIC in the series with Staphylococcus aureus was 188 µM (≈ 64.9 µg/mL); in the series with Escherichia coli, 188 µM (≈ 64.9 µg/mL); with Pseudomonas aeruginosa, 375 µM (≈ 130 µg/mL).

On to `CC1(C)CS(=O)(=O)/C(=N/Nc2cccc(S(N)(=O)=O)c2)C1=O`, for which the inhibition at 500 µM was 78% in the series with MDA-MB-231 [1] and 1% in series [2]. The results for the MIC in the series with Staphylococcus aureus, in the series on Escherichia coli and in the series on Pseudomonas aeruginosa were 23 µM (≈ 7.94 µg/mL), 188 µM (≈ 64.9 µg/mL) and over 750 µM, respectively.

Regarding `CC1(C)CS(=O)(=O)/C(=C/NCc2ccccc2)C1=O`, the inhibition at 500 µM was determined as 88% in the series on MDA-MB-231 [1] and 10% in series [2]. For the same compound, the results for the MIC in the series with Staphylococcus aureus, in the series on Escherichia coli and in the series on Pseudomonas aeruginosa were 94 µM (≈ 26.3 µg/mL), 750 µM (≈ 210 µg/mL) and 750 µM (≈ 210 µg/mL), respectively. Moreover, the pEC50 with MDA-MB-231 [3] is 3.55.

In the case of `CC(C)(C)OC(=O)N1CCC2(CC1)CS(=O)(=O)/C(=N/Nc1ccc(S(N)(=O)=O)cc1)C2=O`, the inhibition at 500 µM was determined as 93% in the series on MDA-MB-231 [1] and 11% in series [2]. The minimum inhibitory concentration (MIC) was 375 µM (≈ 182 µg/mL) with Staphylococcus aureus, 750 µM (≈ 365 µg/mL) with Escherichia coli and over 750 µM in the series on Pseudomonas aeruginosa. Also, the pEC50 with MDA-MB-231 [3] was 3.60.

Consider `O=C1/C(=C\Nc2ccccc2)S(=O)(=O)CC12CC2`, for which the inhibition at 500 µM in the series on MDA-MB-231 [1] was found to be 19%; in series [2], 6%. Besides, the MIC in the series with Staphylococcus aureus was over 750 µM; with Escherichia coli, over 750 µM; with Pseudomonas aeruginosa, 375 µM (≈ 98.7 µg/mL).

As to `NS(=O)(=O)c1cccc(N/N=C2\C(=O)C3(CCCC3)CS2(=O)=O)c1`, the inhibition at 500 µM in the series with MDA-MB-231 [1] was found to be 21%; in series [2], 10%. Also, the MIC in the series on Staphylococcus aureus was 188 µM (≈ 69.8 µg/mL); in the series on Escherichia coli, 188 µM (≈ 69.8 µg/mL); with Pseudomonas aeruginosa it was over 750 µM.

In the case of `CC(C)(C)OC(=O)N1CC2(C1)CS(=O)(=O)/C(=N/Nc1ccc(S(N)(=O)=O)cc1)C2=O`, the inhibition at 500 µM in the series with MDA-MB-231 [1] came to 21%; in series [2] it was 20%. In addition, the MIC came to 23 µM (≈ 10.5 µg/mL) in the series on Staphylococcus aureus, 188 µM (≈ 86.2 µg/mL) in the series with Escherichia coli and 750 µM (≈ 344 µg/mL) in the series with Pseudomonas aeruginosa.

Take `CC(C)(C)OC(=O)N1CCC2(CC1)CS(=O)(=O)/C(=N/Nc1cccc(S(N)(=O)=O)c1)C2=O`: the results for the inhibition at 500 µM (with MDA-MB-231 [1]; in series [2]) were 37% and 7%, respectively. The MIC was 375 µM (≈ 182 µg/mL) with Staphylococcus aureus, 188 µM (≈ 91.5 µg/mL) in the series with Escherichia coli and over 750 µM in the series on Pseudomonas aeruginosa.

In the case of `Cc1ccc(N/N=C2\C(=O)C3(CCCC3)CS2(=O)=O)cc1`, the inhibition at 500 µM was 66% with MDA-MB-231 [1] and 26% in series [2]. Moreover, the MIC in the series with Staphylococcus aureus was over 750 µM; in the series on Escherichia coli it was over 750 µM; in the series on Pseudomonas aeruginosa, 750 µM (≈ 230 µg/mL).

In the case of `CC1(C)CS(=O)(=O)/C(=C/Nc2ccccc2)C1=O`, the inhibition at 500 µM (with MDA-MB-231 [1]; in series [2]) was 7% in each case. Moreover, the MIC in the series with Staphylococcus aureus worked out at 94 µM (≈ 24.9 µg/mL); in the series with Escherichia coli it was 188 µM (≈ 49.9 µg/mL); in the series with Pseudomonas aeruginosa, 375 µM (≈ 99.5 µg/mL).

As to `NS(=O)(=O)c1ccc(N/N=C2\C(=O)C3(CC3)CS2(=O)=O)cc1`, the inhibition at 500 µM in the series with MDA-MB-231 [1] amounted to 4%; in series [2], 1%. Moreover, the results for the MIC with Staphylococcus aureus, in the series on Escherichia coli and in the series with Pseudomonas aeruginosa were 188 µM (≈ 64.6 µg/mL), 94 µM (≈ 32.3 µg/mL) and over 750 µM, respectively.

Regarding `CCC1(C)CCS(=O)(=O)/C(=N/Nc2ccc(S(N)(=O)=O)cc2)C1=O` (stereo not given), the inhibition at 500 µM with MDA-MB-231 [1] came out at 57%; in series [2], 100%. For the same compound, the values for the minimum inhibitory concentration (MIC) with Staphylococcus aureus, in the series with Escherichia coli and with Pseudomonas aeruginosa were 375 µM (≈ 140 µg/mL), 750 µM (≈ 280 µg/mL) and 750 µM (≈ 280 µg/mL), respectively. Besides, in series [4], the pEC50 is 4.11.

With `Nc1cccc(S(N)(=O)=O)c1`, the figures for the inhibition at 500 µM (in the series with MDA-MB-231 [1]; in series [2]) were 30% and 100%, respectively. In addition, the minimal inhibitory concentration (MIC) in the series on Staphylococcus aureus came out at 375 µM (≈ 64.6 µg/mL); in the series on Escherichia coli it was 750 µM (≈ 129 µg/mL); with Pseudomonas aeruginosa, 750 µM (≈ 129 µg/mL). For the same compound, in series [4], the pEC50 is 4.03.

Consider `Nc1ccc(S(N)(=O)=O)cc1` [SULFANILAMIDE], for which the inhibition at 500 µM in the series on MDA-MB-231 [1] stood at 57%; in series [2], 6%. In addition, the MIC is 750 µM (≈ 129 µg/mL) in the series with Staphylococcus aureus, 375 µM (≈ 64.6 µg/mL) in the series with Escherichia coli and 750 µM (≈ 129 µg/mL) in the series with Pseudomonas aeruginosa.
